Source: patent publication US20250257051A1, “SUBSTITUTED PYRIMIDINE COMPOUNDS AS TYK2 INHIBITORS” (1910 Genetics Inc., priority 2022, published 2025)
Several values for one entry are separate records, joined by “and”; a condition that tells them apart may be missing. Identical values can stand only once. Counter-ions that a name gives are not always drawn. Like-named read-outs stand apart in the source and are kept apart here.

Molecular target: human TYK2 (JH2domain-pseudokinase) (Homo sapiens (Human), UniProt P29597)
Assay: TYK2 JH2 Domain Binding Assay (KINOMEscan competition binding)
Protocol: Binding constants for compounds disclosed herein may be determined by the KINOMEscan® assay developed by DiscoveRx. KINOMEscan® is based on a competition binding assay that quantitatively measures the ability of a compound to compete with an immobilized, active-site directed ligand. The assay is performed by combining three components: DNA-tagged kinase; immobilized ligand; and a test compound. The ability of the test compound to compete with the immobilized ligand is measure via quantitative PCR of the DNA tag.
Binding constants for compounds disclosed herein against the JH2 domain are determined by the following protocol for a KINOMEscan® assay (DiscoveRx). A fusion protein of a partial length construct of human TYK2 (JH2domain-pseudokinase) (amino acids G556 to D888 based on reference sequence NP 003322.3) and the DNA binding domain of NFkB is expressed in transiently transfected HEK293 cells. From these HEK 293 cells, extracts are prepared in M-PER extraction buffer (Pierce) in the presence of Protease Inhibitor Cocktail Complete (Roche) and Phosphatase Inhibitor Cocktail Set II (Merck) per manufacturers' instructions. The TYK2 (JH2domain-pseudokinase) fusion protein is labeled with a chimeric double-stranded DNA tag containing the NFkB binding site (5′-GGGAATTCCC-3′) fused to an amplicon for qPCR readout, which is added directly to the expression extract (the final concentration of DNA-tag in the binding reaction is 0.1 nM).
Streptavidin-coated magnetic beads (Dynal M280) are treated with a biotinylated small molecule ligand for 30 minutes at room temperature to generate affinity resins for the binding assays. The liganded beads are blocked with excess biotin and washed with blocking buffer (SeaBlock (Pierce), 1% BSA, 0.05% Tween 20, 1 mM DTT) to remove unbound ligand and to reduce nonspecific binding.
Extracts are used directly in binding assays without any enzyme purification steps at a >10,000-fold overall stock dilution (final DNA tagged enzyme concentration<0.1 nM). Extracts are loaded with DNA-tag and diluted into the binding reaction in a two-step process. First extracts are diluted 1:100 in 1× binding buffer (PBS/0.05% Tween 20/10 mM DTT/0.1% BSA/[…] sonicated salmon sperm DNA) containing 10 nM DNA-tag. This dilution is allowed to equilibrate at room temperature for 15 minutes and then subsequently diluted 1:100 in 1× binding buffer. Test compounds are prepared as 111× stocks in 100% DMSO. Kds are determined using an 11-point 3-fold compound dilution series with three DMSO control points. All compounds for Kd measurements are distributed by acoustic transfer (non-contact dispensing) in 100% DMSO. The compounds are then diluted directly into the assays such that the final concentration of DMSO is 0.9%. All reactions performed in polypropylene 384-well plates. Each is a final volume of 0.02 mL. Assays are incubated with shaking for 1 hour at room temperature. Then the beads are pelleted and washed with wash buffer (lx PBS, 0.05% Tween 20) to remove displaced kinase and test compound. The washed beads are re-suspended in elution buffer (lx PBS, 0.05% Tween 20, 0.5 μM non-biotinylated affinity ligand) and incubated at room temperature with shaking for 30 minutes. The kinase concentration in the eluates is measured by qPCR. qPCR reactions are assembled by adding 2.5 μL of kinase eluate to 7.5 μL of qPCR master mix containing 0.15 μM amplicon primers and 0.15 μM amplicon probe. The qPCR protocol consists of a 10-minute hot start at 95° C., followed by 35 cycles of 95° C. for 15 seconds, 60° C. for 1 minute.
Test compounds are prepared as 111× stocks in 100% DMSO. Kds are determined using an 11-point 3-fold compound dilution series with three DMSO control points. All compounds for Kd measurements are distributed by acoustic transfer (non-contact dispensing) in 100% DMSO. The compounds are then diluted directly into the assays such that the final concentration of DMSO is 0.9%. […]

[1] = KINOMEscan, 11-point 3-fold dilution, top concentration 30,000 nM, Kd measurements in duplicate, read-out: TYK JH2 (Kd)

Sequence of human TYK2 (JH2domain-pseudokinase) (P29597 556-888): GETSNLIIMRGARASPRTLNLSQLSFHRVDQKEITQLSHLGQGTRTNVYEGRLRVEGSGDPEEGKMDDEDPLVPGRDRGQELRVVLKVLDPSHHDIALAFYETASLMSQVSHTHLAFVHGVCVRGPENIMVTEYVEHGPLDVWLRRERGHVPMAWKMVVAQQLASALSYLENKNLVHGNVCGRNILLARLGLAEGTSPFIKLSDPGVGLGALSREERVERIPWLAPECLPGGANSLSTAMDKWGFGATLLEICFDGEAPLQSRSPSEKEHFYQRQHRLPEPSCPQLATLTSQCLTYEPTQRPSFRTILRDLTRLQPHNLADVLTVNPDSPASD

Row | Structure (SMILES) | Kd [1] | also measured
1 | CNC(=O)c1cnc(N2CC(C(=O)NC)C2)nc1Nc1cccc(-c2ncc(F)cn2)c1OC [Compound 49, 4-((3-(5-fluoropyrimidin-2-yl)-2-methoxyphenyl)amino)-N-methyl-2-(3-(methylcarbamoyl)azetidin-1-yl)pyrimidine-5-carboxamide] | 2.3 nM | 
2 | CCOC(=O)C1CCN(c2ncc(C(=O)NC)c(Nc3ccccc3S(C)(=O)=O)n2)CC1 [Compound 17, Ethyl 1-(5-(methylcarbamoyl)-4-((2-(methylsulfonyl)phenyl)amino)pyrimidin-2-yl)piperidine-4-carboxylate] | 21 nM | 
3 | CCOC(=O)C1CCN(c2ncc(C(N)=O)c(Nc3ccc(C4CC4)nc3)n2)CC1 [Compound 36, Ethyl 1-(5-carbamoyl-4-((6-cyclopropylpyridin-3-yl)amino)pyrimidin-2-yl)piperidine-4-carboxylate] | 660 nM | 
4 | CC(=O)N1CCN(c2ncc(C(N)=O)c(Nc3ccccc3S(C)(=O)=O)n2)C(C)C1 (racemic) [Compound 62, 2-(4-acetyl-2-methylpiperazin-1-yl)-4-((2-(methylsulfonyl)phenyl)amino)pyrimidine-5-carboxamide] | 120 nM | 
5 | CNC(=O)[C@H]1CCN(c2ncc(C(N)=O)c(Nc3cccc(-c4ncc(F)cn4)c3OC)n2)C1 [Compound 52, (S)-4-((3-(5-fluoropyrimidin-2-yl)-2-methoxyphenyl)amino)-2-(3-(methylcarbamoyl)pyrrolidin-1-yl)pyrimidine-5-carboxamide] | 1.6 nM | 
6 | CC(=O)N1CCCN(c2ncc(C(N)=O)c(Nc3ccccc3S(C)(=O)=O)n2)CC1 [Compound 80, 2-(4-acetyl-1,4-diazepan-1-yl)-4-((2-(methylsulfonyl)phenyl)amino)pyrimidine-5-carboxamide] | 950 nM | 
7 | COc1c(Nc2nc(N3CCCN(C(=O)OC(C)(C)C)CC3)ncc2C(N)=O)cccc1-c1ncc(F)cn1 [Compound 71, tert-butyl 4-(S-carbamoyl-4-((3-(5-fluoropyrimidin-2-yl)-2-methoxyphenyl)amino)pyrimidin-2-yl)-1,4-diazepane-1-carboxylate] | 470 nM | 
8 | CNC(=O)c1cnc(N2CCCN(C(=O)OC(C)(C)C)CC2)nc1Nc1ccccc1OC [Compound 30, Tert-Butyl 4-(4-((2-methoxyphenyl)amino)-5-(methylcarbamoyl)pyrimidin-2-yl)-1,4-diazepane-1-carboxylate] | 44000 nM | 
9 | CNC(=O)c1cnc(N2CC[C@H](C(=O)NC)C2)nc1Nc1cccc(-c2ncc(F)cn2)c1OC [Compound 7, (S)-4-((3-(5-fluoropyrimidin-2-yl)-2-methoxyphenyl)amino)-N-methyl-2-(3-(methylcarbamoyl)pyrrolidin-1-yl)pyrimidine-5-carboxamide] | 3.9 nM | 
10 | COc1c(Nc2nc(N3CCCN(C(C)=O)CC3)ncc2C(N)=O)cccc1-c1ncc(F)cn1 [Compound 81, 2-(4-acetyl-1,4-diazepan-1-yl)-4-((3-(5-fluoropyrimidin-2-yl)-2-methoxyphenyl)amino)pyrimidine-5-carboxamide] | 370 nM | 
11 | COc1c(Nc2nc(N3CCCNCC3)ncc2C(N)=O)cccc1-c1ncc(F)cn1 [Compound 73, 2-(1,4-diazepan-1-yl)-4-((3-(5-fluoropyrimidin-2-yl)-2-methoxyphenyl)amino)pyrimidine-5-carboxamide Hydrochloride] | 150 nM | 
12 | CNC(=O)c1cnc(N2CC[C@@H](C(=O)NC)C2)nc1Nc1cccc(-c2ncc(F)cn2)c1OC [Compound 5, (R)-4-((3-(5-fluoropyrimidin-2-yl)-2-methoxyphenyl)amino)-N-methyl-2-(3-(methylcarbamoyl)pyrrolidin-1-yl)pyrimidine-5-carboxamide] | 0.69 nM | Kd (footnote a: the two measurements averaged for Cmpd. No. 5, read-out: TYK JH2 (Kd, nM), individual measurements): 0.45 nM and 0.93 nM
13 | CNC(=O)c1cnc(N2CCC(C(=O)NC)C2)nc1NC(=O)c1n[nH]c2c(OC)cccc12 (centres unmarked) [Compound 56, 7-methoxy-N-(5-(methylcarbamoyl)-2-(3-(methylcarbamoyl)pyrrolidin-1-yl)pyrimidin-4-yl)-1H-indazole-3-carboxamide] | 11000 nM | 
14 | CNC(=O)c1cnc(N2CCNCC2C)nc1Nc1cccc(-c2ncc(F)cn2)c1OC (centres unmarked) [Compound 25, 4-((3-(5-fluoropyrimidin-2-yl)-2-methoxyphenyl)amino)-N-methyl-2-(2-methylpiperazin-1-yl)pyrimidine-5-carboxamide Hydrochloride] | 180 nM | 
15 | CNC(=O)[C@H]1CCN(c2ncc(C(N)=O)c(Nc3ccc(C4CC4)nc3)n2)C1 [Compound 3, (S)-4-((6-cyclopropylpyridin-3-yl)amino)-2-(3-(methylcarbamoyl)pyrrolidin-1-yl)pyrimidine-5-carboxamide] | 54 nM | 
16 | CNC(=O)C1CN(c2ncc(C(N)=O)c(Nc3ccc(C4CC4)nc3)n2)C1 [Compound 50, 4-((6-cyclopropylpyridin-3-yl)amino)-2-(3-(methylcarbamoyl)azetidin-1-yl)pyrimidine-5-carboxamide] | 110 nM | 
17 | CNC(=O)c1cnc(N2CCC(C(=O)NC)C2)nc1Nc1ccc(C2CC2)nc1 (centres unmarked) [drawing 147] |  | Kd (Table 4: pyrimidinyl compound of Formula I versus compounds with a different heteroaryl core, read-out: TYK JH2 (Kd)): 170 nM
18 | COc1c(Nc2nc(N3CCN(C(C)=O)CC3C)ncc2C(N)=O)cccc1-c1ncc(F)cn1 (centres unmarked) [Compound 60, 2-(4-acetyl-2-methylpiperazin-1-yl)-4-((3-(5-fluoropyrimidin-2-yl)-2-methoxyphenyl)amino)pyrimidine-5-carboxamide] | 2 nM | 
19 | COc1c(Nc2nc(N3CCNCC3C)ncc2C(N)=O)cccc1-c1ncc(F)cn1 (centres unmarked) [Compound 57, 4-((3-(5-fluoropyrimidin-2-yl)-2-methoxyphenyl)amino)-2-(2-methylpiperazin-1-yl)pyrimidine-5-carboxamide] | 49 nM | 
20 | CNC(=O)c1cnc(N2CCC(C(=O)O)CC2)nc1Nc1cccc(-c2ncc(F)cn2)c1OC [Compound 27, 1-(4-((3-(5-fluoropyrimidin-2-yl)-2-methoxyphenyl)amino)-5-(methylcarbamoyl)pyrimidin-2-yl)piperidine-4-carboxylic acid] | 36 nM | 
21 | CCOC(=O)C1CCN(c2ncc(C(N)=O)c(Nc3cccc(-c4ncc(F)cn4)c3OC)n2)CC1 [Compound 39, Ethyl 1-(5-carbamoyl-4-((3-(5-fluoropyrimidin-2-yl)-2-methoxyphenyl)amino)pyrimidin-2-yl)piperidine-4-carboxylate] | 0.82 nM | 
22 | CNC(=O)c1cnc(N2CCCNCC2)nc1Nc1cccc(-c2ncc(F)cn2)c1OC [Compound 74, 2-(1,4-diazepan-1-yl)-4-((3-(5-fluoropyrimidin-2-yl)-2-methoxyphenyl)amino)-N-methylpyrimidine-5-carboxamide Hydrochloride] | 800 nM | 
23 | CC1CN(C(=O)OC(C)(C)C)CCN1c1ncc(C(N)=O)c(Nc2ccccc2S(C)(=O)=O)n1 (racemic) [Compound 55, Tert-Butyl 4-(5-carbamoyl-4-((2-(methylsulfonyl)phenyl)amino)pyrimidin-2-yl)-3-methylpiperazine-1-carboxylate] | 180 nM | 
24 | CNC(=O)c1cnc(N2CCCN(C(C)=O)CC2)nc1Nc1ccccc1S(C)(=O)=O [Compound 75, 2-(4-acetyl-1,4-diazepan-1-yl)-N-methyl-4-((2-(methylsulfonyl)phenyl)amino)pyrimidine-5-carboxamide] | 1300 nM | 
25 | CNC(=O)c1cnc(N2CCCNCC2)nc1Nc1ccccc1S(C)(=O)=O [Compound 67, 2-(1,4-diazepan-1-yl)-N-methyl-4-((2-(methylsulfonyl)phenyl)amino)pyrimidine-5-carboxamide hydrochloride] | 3400 nM | 
